Usually inhibition stands for the percentage by which the read-out fell short of the control. The low end stands for a response near the control, the high end for a response far below the control.

This passage reports inhibition results from patent US20060135589A1, “1h-Indazole-3-carboxamide compounds as cyclin dependent kinase (cdk) inhibitors” (Astex Technology, Inc., priority 2002, published 2006).

The target in this assay is T1, CDK2/CyclinA (Homo sapiens, UniProt P24941).
T1 construct: purchased Upstate Biotechnology
Put plainly: Measurement of CDK2 kinase inhibitory activity (IC50), 33P-ATP / histone H1 filter assay. The class given is biochemical. As to the method: Measurement of CDK2 Kinase Inhibitory Activity (IC50)
Compounds of the invention were tested for kinase inhibitory activity using the following protocol.
1.7 μl of active CDK2/CyclinA (Upstate Biotechnology, 10 U/μl) is diluted in assay buffer (250 μl of 10× strength assay buffer (200 mM MOPS pH 7.2, 250 mM β-glycerophosphate, 50 mM EDTA, 150 mM MgCl2), 11.27 μl 10 mM ATP, 2.5 μl 1M DTT, 25 μl 100 mM sodium orthovanadate, 708.53 μl H2O), and 10 μl mixed with 10 μl of histone substrate mix (60 μl bovine histone H1 (Upstate Biotechnology, 5 mg/ml), 940 μl H2O, 35 μCi γ^33P-ATP) and added to 96 well plates along with 5 μl of various dilutions of the test compound in DMSO (up to 2.5%). The reaction is allowed to proceed for 5 hours before being stopped with an excess of ortho-phosphoric acid (30 μl at 2%).
γ^33P-ATP which remains unincorporated into the histone H1 is separated from phosphorylated histone H1 on a Millipore MAPH filter plate. The wells of the MAPH plate are wetted with 0.5% orthophosphoric acid, and then the results of the reaction are filtered with a Millipore vacuum filtration unit through the wells. Following filtration, the residue is washed twice with 200 μl of 0.5% orthophosphoric acid. Once the filters have dried, 25 μl of Microscint 20 scintillant is added, and then counted on a Packard Topcount for 30 seconds.

For `O=C(Nc1ccc(F)cc1)c1n[nH]c2ccc(I)cc12` [Example 58], the inhibition at 50 µM is at least 50%.

`CNS(=O)(=O)Cc1ccc(NC(=O)c2n[nH]c3ccc(-c4nccs4)cc23)cc1` [Example 29, 5-Thiazol-2-yl-1H-indazole-3-carboxylic acid (4-methylsulphamoylmethyl-phenyl)-amide] showed an inhibition at 50 µM of at least 50%.

`CC(=O)NCc1ccc(NC(=O)c2n[nH]c3ccc(I)cc23)cc1` [Example 15, N-[4-(acetylaminomethyl)phenyl]-5-iodo-1H-indazole-3-carboxamide] yielded an inhibition at 50 µM of at least 50%.

Compound `Nc1ccc2[nH]nc(C(=O)Nc3ccccc3)c2c1` [Example 60, 5-Amino-1H-indazole-3-carboxylic acid phenylamide] registered an inhibition at 50 µM of at least 50%.

On to `O=C(Nc1cccc(-c2cnco2)c1)c1n[nH]c2ccccc12` [Example 7, N-[3-(oxazol-5-yl)phenyl)-1H-indazole-3-carboxamide], for which the inhibition at 50 µM was at least 50%.

`CN1CCN(c2ccc(CNC(=O)c3n[nH]c4ccc(Cl)cc34)cc2)CC1` [Example 46] displayed an inhibition at 50 µM of at least 50%.

In turn, `CC(=O)NCc1ccc(NC(=O)c2n[nH]c3ccc(Cl)cc23)cc1` [Example 65, 5-Chloro-1H-indazole-3-carboxylic acid [4-(acetylamino-methyl)-phenyl]-amide] showed an inhibition at 50 µM of at least 50%.

For the compound `CNS(=O)(=O)Cc1ccc(NC(=O)c2n[nH]c3ccc([N+](=O)[O-])cc23)cc1` [Example 19, 5-Nitro-1H-indazole-3-carboxylic acid (4-methylsulphamoylmethyl-phenyl)-amide], the inhibition at 50 µM is at least 50%.

In turn, `O=C(Nc1ccc([N+](=O)[O-])cn1)c1n[nH]c2ccc(I)cc12` [Example 16, N-(5-nitro-pyridin-2-yl)-5-Iodo-1H-indazole-3-carboxamide] came in with an inhibition at 50 µM of at least 50%.

With `N=C(N)NS(=O)(=O)c1ccc(NC(=O)c2n[nH]c3ccccc23)cc1` [Example 36], the inhibition at 50 µM was at least 50%.

`CCc1nnc(NC(=O)c2n[nH]c3ccc(Cl)cc23)s1` [Example 51] had an inhibition at 50 µM of at least 50%.

Compound `CNS(=O)(=O)Cc1ccc(NC(=O)c2n[nH]c3ccc(-c4cccs4)cc23)cc1` [Example 21, 5-Thiophen-2-yl-1H-indazole-3-carboxylic acid (4-methylsulphamoylmethyl-phenyl)-amide] displayed an inhibition at 50 µM of at least 50%.

`O=C(Nc1ccc(N2CCOCC2)cc1)c1n[nH]c2ccc(Cl)cc12` [Example 74]: the inhibition at 50 µM is at least 50%.

In turn, `O=C(NC1CCN(Cc2ccccc2)C1)c1n[nH]c2ccc(Cl)cc12` (stereo not drawn) [Example 37] had an inhibition at 50 µM of at least 50%.

In turn, `CCOC(=O)N1CCC(NC(=O)c2n[nH]c3ccc(Cl)cc23)CC1` [Example 38] returned an inhibition at 50 µM of at least 50%.

In turn, `O=C(Nc1ccccc1)c1n[nH]c2ccccc12` [Example 27] returned an inhibition at 50 µM of at least 50%.

`CS(=O)(=O)NCc1ccc(NC(=O)c2n[nH]c3ccc([N+](=O)[O-])cc23)cc1` [Example 33] had an inhibition at 50 µM of at least 50%.

Consider `NS(=O)(=O)c1ccc(NC(=O)c2n[nH]c3ccc([N+](=O)[O-])cc23)cc1` [Example 18, 5-Nitro-1H-indazole-3-carboxylic acid (4-sulphamoyl-phenyl)-amide], for which the inhibition at 50 µM is at least 50%.

With `O=C(Nc1ccccc1)c1n[nH]c2ccc(F)cc12` [Example 80], the inhibition at 50 µM is at least 50%.

`CS(=O)(=O)c1cccc(NC(=O)c2n[nH]c3ccc(I)cc23)c1` [Example 14, N-(3-methanesulphonylphenyl)-5-iodo-1H-indazole-3-carboxamide] came in with an inhibition at 50 µM of at least 50%.

`O=C(Nc1cccc(-c2nnn[nH]2)c1)c1n[nH]c2ccccc12` [Example 4, N-[3-(1H-tetrazol-5-yl)phenyl]-1H-indazole-3-carboxamide] had an inhibition at 50 µM of at least 50%.

As to `CC(=O)N1CCC(NC(=O)c2n[nH]c3ccccc23)CC1` [Example 68, 1H-Indazole-3-carboxylic acid (1-acetyl-piperidin-4-yl)-amide], the inhibition at 50 µM is at least 50%.

`O=C(Nc1ccccc1)c1n[nH]c2ccc(Cl)cc12` [Example 49] registered an inhibition at 50 µM of at least 50%.

With `CCOC(=O)N1CCC(NC(=O)c2n[nH]c3ccc([N+](=O)[O-])cc23)CC1` [Example 34], the inhibition at 50 µM is at least 50%.

The compound `O=C(Nc1cccnc1)c1n[nH]c2ccc(Cl)cc12` [Example 47] returned an inhibition at 50 µM of at least 50%.

Take `O=C(Nc1ccc(F)cc1)c1n[nH]c2cccc(Br)c12` [Example 71, 4-Bromo-1H-indazole-3-carboxylic acid (4-fluoro-phenyl)-amide]: the inhibition at 50 µM was at least 50%.

Compound `CNS(=O)(=O)Cc1ccc(NC(=O)c2n[nH]c3ccc(-c4ccccc4)cc23)cc1` [Example 32] had an inhibition at 50 µM of at least 50%.

As for `O=C(Nc1ccc[nH]c1=O)c1n[nH]c2ccc(I)cc12` [Example 53], the inhibition at 50 µM was at least 50%.

Consider `O=C(NC1CCNCC1)c1n[nH]c2ccc(I)cc12` [Example 64, 5-Iodo-1H-indazole-3-carboxylic acid piperidin-4-ylamide], for which the inhibition at 50 µM is at least 50%.

In the case of `O=C(Nc1ccccc1)c1n[nH]c2ccc(-c3ccccc3-c3ccccc3)cc12` [Example 85, 5-Biphenyl-2-yl-1H-indazole-3-carboxylic acid phenylamide], the inhibition at 50 µM was at least 50%.

For `O=C(Nc1ccc(Cl)nc1)c1n[nH]c2ccc(I)cc12` [Example 56], the inhibition at 50 µM is at least 50%.

Consider `O=C(Nc1ccccc1)c1n[nH]c2ccc(N3CCCC3)cc12` [Example 84, 5-pyrrolidin-1-yl-1H-indazole-3-carboxylic acid phenylamide], for which the inhibition at 50 µM is at least 50%.

For `O=C(Nc1cccc(-c2nnn[nH]2)c1)c1n[nH]c2ccc(Cl)cc12` [Example 75], the inhibition at 50 µM is at least 50%.

`CNS(=O)(=O)Cc1ccc(NC(=O)c2n[nH]c3ccc(-c4ccco4)cc23)cc1` [Example 23, 5-Furan-2-yl-1H-indazole-3-carboxylic acid (4-methylsulphamoylmethyl-phenyl)-amide] returned an inhibition at 50 µM of at least 50%.

`N#Cc1ccc(NC(=O)c2n[nH]c3ccc(I)cc23)cn1` [Example 48] displayed an inhibition at 50 µM of at least 50%.

The compound `O=C(Nc1cccnc1Cl)c1n[nH]c2ccc(I)cc12` [Example 44] yielded an inhibition at 50 µM of at least 50%.

On to `COC(=O)N1CCC(NC(=O)c2n[nH]c3ccc(Cl)cc23)C1` (stereo not drawn) [Example 81, 3-[(5-Chloro-1H-indazole-3-carbonyl)-amino]-pyrrolidine-1-carboxylic acid methyl ester], for which the inhibition at 50 µM is at least 50%.

`O=C(Nc1ccccc1)c1n[nH]c2ccc(I)cc12` [Example 11, N-phenyl-5-iodo-1H-indazole-3-carboxamide]: the inhibition at 50 µM is at least 50%.

For `O=C(Nc1ccc(N2CCOCC2)cc1)c1n[nH]c2ccc(I)cc12` [Example 52], the inhibition at 50 µM is at least 50%.

`O=C(NC1CCOCC1)c1n[nH]c2ccc(Cl)cc12` [Example 42] returned an inhibition at 50 µM of at least 50%.

For `O=C(Nc1ccc(F)cc1)c1n[nH]c2ccccc12` [Example 70, 1H-Indazole-3-carboxylic acid (4-fluoro-phenyl)-amide], the inhibition at 50 µM was at least 50%.

Consider `O=C(Nc1cnc2ccccc2c1)c1n[nH]c2ccc(I)cc12` [Example 41], for which the inhibition at 50 µM is at least 50%.

On to `O=C(Nc1ccc(-c2c[nH]cn2)cc1)c1n[nH]c2ccccc12` [Example 8, N-[4-(1H-imidazol-4-yl)phenyl]-1H-indazole-3-carboxamide], for which the inhibition at 50 µM is at least 50%.

In turn, `O=C(NC1CCN(C(=O)C(F)(F)F)CC1)c1n[nH]c2ccccc12` [Example 66, 1H-Indazole-3-carboxylic acid [1-(2,2,2 trifluoro-acetyl)-Piperidin-4-yl]-amide] came in with an inhibition at 50 µM of at least 50%.

In turn, `O=C(NC1CCNCC1)c1n[nH]c2ccccc12` [Example 67, 1H-Indazole-3-carboxylic acid piperidin-4-ylamide] registered an inhibition at 50 µM of at least 50%.

Compound `CNS(=O)(=O)Cc1ccc(NC(=O)c2n[nH]c3ccc(Cl)cc23)cc1` [Example 25, 5-Chloro-1H-indazole-3-carboxylic acid (4-methylsulphamoylmethyl-phenyl)-amide] gave an inhibition at 50 µM of at least 50%.

Consider `CC(=O)NCc1ccc(NC(=O)c2n[nH]c3ccccc23)cc1` [Example 5, N-[4-(acetylaminomethyl)phenyl]-1H-indazole-3-carboxamide], for which the inhibition at 50 µM is at least 50%.

As for `O=C(NCc1ccccc1)c1n[nH]c2ccc(Cl)cc12` [Example 45], the inhibition at 50 µM was at least 50%.

Take `O=C(Nc1ccc(Cl)nc1)c1n[nH]c2ccccc12` [Example 28, 1H-Indazole-3-carboxylic acid (6-chloro-pyridin-3-yl)-amide]: the inhibition at 50 µM was at least 50%.

Take `CNS(=O)(=O)Cc1ccc(NC(=O)c2n[nH]c3ccc(NC(=O)NCCCl)cc23)cc1` [Example 63, 5-[3-(2-Chloro-ethyl)-ureido]-1H-indazole-3-carboxylic acid (4-methylsulphamoylmethyl-phenyl)-amide]: the inhibition at 50 µM was at least 50%.

Regarding `O=C(Nc1ccc(S(=O)(=O)Nc2nccs2)cc1)c1n[nH]c2ccccc12` [Example 31], the inhibition at 50 µM is at least 50%.
